Ten substances from patent US5792457A, “Antibody recognizing endothelial cell ligand for leukocyte CR3” (priority 1995, dated 1998) can be followed below.

Assay [1] concerns Factor Xa procoagulant activity on THP-1 cells. Kind of assay: Generation of Factor Xa by monocytes (THP-1), clotting assay. The note with it: for Factor Xa / Clotting time: peptides 0.5 mM; for Clotting time: mean ± SD of at least 3 experiments. The assay is classed as cell-based. The method, then:
Factor Xa generation was determined by a modification of the method of Miletich et al. (1978), J. Biol. Chem. 253: 6908-6916. THP-1 cells (ATCC; […]) resuspended in RPMI 1640 (Bio Whittaker, Walkersville,Md.) were incubated with 100 μM ADP (Sigma), 2.5 mM CaC2, 1 or 5 μg/ml Factor X (Hematologic Technologies Inc.) and 0.5 mM peptides at room temperature. After 20 minutes, 100 μl of the reaction mixture was transferred to 37° C. and supplemented with 100 μl of bovine factor VII- and Factor X-deficient plasma (Sigma). Coagulation was initiated by adding 100 μl of 25 mM CaC2 and the clotting time was determined. Factor Xa procoagulant activity (ng/ml) was calculated by means of a standard curve constructed by serial concentrations of Factor Xa (Hematologic Technologies Inc.) from 50 to 250 ng/ml.

Assay [2] deals with neutrophil adherence to human umbilical vein endothelial cells (HUVEC). The assay is described as follows: Adherence of neutrophils to cultured (TNF alpha stimulated) endothelial cells. In kind it is cell-based. As to conditions: for inhibition of neutrophil adherence (in words): peptides 0.5 mM (Example 9); for neutrophil adherence, peptide plus 9D4: peptide 5 μg/ml + 9D4 10 μg/ml; for neutrophil adherence, peptide plus 12H1: peptide 5 μg/ml + 12H1 10 μl of ascites; for neutrophil adherence, peptide plus IB4: peptide 5 μg/ml + IB4 10 μg/ml; for neutrophil adherence, single agent: peptide 5 μg/ml or antibody alone (IB4 10 μg/ml, 12H1 10 μl of ascites, 9D4 10 μg/ml); for additive reduction of neutrophil adherence, peptide together with IB4: with anti-CD18 mAb IB4 (50 μg/ml); for inhibition of neutrophil adherence / role of RGD in blocking neutrophil adherence (in words): 20-mer peptides, 0.5 mM; for maximal inhibition of neutrophil attachment: concentration series (FIG. 25B). The method, then:
FIG. 17 is a bar graph representation of the inhibition of neutrophil adherence to activated endothelial cells by FHA, Factor X- and FHA- derived peptides. The concentration of inhibiting substances was: peptides 0.5 mM, native FHA 0.3 μM. Values represent the mean±standard deviation of 4 experiments with 5 wells/peptide.
FIG. 18 is a graphical representation of the FHA, FHA- or Factor X-peptide concentration effects on the inhibition of neutrophil adherence to activated endothelial cells. FHA peptide II monomer (Square) and trimer (Diamond), Factor X peptide II (Circle) at 10^-9 μM to 0.5 mM; native FHA at 10^-6 to 3×10^2 μM (triangle). Values represent the mean of 3 experiments with 5 wells/peptide (standard deviations <15%).
FIG. 25 is a graphical representation of the inhibition of neutrophil adherence to activated endothelial cells by FHA and FHA peptides. FIG. 25A: Peptide concentrations were 0.5 mM (FHA 0.2 μM). Values represent mean±standard deviation of four experiments with 5 wells/peptide; FIG. 25B represents the mean±standard deviation of triplicate experiments with 5 wells/peptide. Native FHA (.quadrature.); FHA peptide Ca (.largecircle.).
Human umbilical vein endothelial cells (HUVEC, first passage, Clonetics, San Diego, Calif.) were subcultured at confluence into Terasaki tissue culture wells. After 24 hours, confluent monolayers were used for adherence assays. Monolayers were stimulated with 10 ng/ml TNF alpha (Boehringer Mannheim, Indianapolis, Ind.) at 37° C. for four hours. 30 μl of human neutrophils (10^6 /ml) were labeled with fluorescein by the method of Lo et al. (1991), J. ExP. Med. 173 1493-1500, and preincubated for 15 minutes at 37° C. with 20 μl of peptides (0.5 mM in HAP) or HAP (phosphate buffered saline containing 0.5 mg/ml human serum albumin, 3 mM glucose, and 0.3 U/ml aprotinin) as a control buffer. For some experiments, endothelial cells were pretreated from 10 minutes with Factor X or antibodies against Factor X receptor (EPR-1; Altieri et al. (1990), J. Immunol. 145, 246-253) 12H1 and 9D4 (obtained from Dr. D. Altieri, Scripps Research Institute, LaJolla, Calif.) and then washed. Neutrophils were allowed to adhere to the monolayer for 15 mins. at 37° C. and unbound cells were removed by submersion of the plate in PBS buffer. The number of adherent neutrophils was counted in a 40× microscope field and expressed as a percentage of adherence in control wells with neutrophils treated with HAP buffer alone. The mAb IB4 against CD18 (50 μg/ml; Merck Inc., Rahway, N.J.) served as a positive control.
The ability of FHA peptides and anti-CD18 or anti-Factor X receptor antibodies to interact cooperatively to inhibit neutrophil adherence to endothelial cells was assessed by measuring neutrophil adherence to endothelial cells in the presence of antibody as well as antibody plus peptide. […] Anti-Factor X receptor mAb 12H1 (10 μl of ascites) or 9D4 (10 μg/ml) were added to the endothelial cell monolayers 10 min before the assay. The peptides were added at 5 μg/ml. The results are shown in Table 8 where the numerical values are in % of control binding.
The procedures for determining the neutrophil adherence to cultured endothelial cells and the transendothelial migration of neutrophils were identical with those of Example 9. Control values were the same as those shown in Example 9.

Consider GYDTKQEDG [Factor X II], for which the “reduction of Factor Xa production” value in assay [1] (0.5 mM, vs scrambled FHA II, 20 min) is given as greater than 90%. In assay [1], the “Factor Xa” value was less than 10 ng/mL and the Clotting time was 55.2 ± 4.0 s.

For the substance Ac-ETKEVDG-NH2 [Acetyl/Amide-FHA II], the “inhibition of neutrophil adherence (in words)” value (“inhibition … (in words)” below) in assay [2] is “significantly enhanced the ability of peptide FHA II to block neutrophil adherence to endothelia”.

For the substance “LGYQAK (UniProt P12255 1979-1984, looked up, fragment) [FHA Ia]”, in assay [2], the “neutrophil adherence, peptide plus 9D4” value is recorded as 63 ± 17 % of control binding; the “neutrophil adherence, peptide plus 12H1” value is listed as 64 ± 12 % of control binding; the “neutrophil adherence, peptide plus IB4” value was 20 ± 7 % of control binding; the “neutrophil adherence, single agent” value was 63 ± 12 % of control binding. Besides, in assay [2], the “inhibition … (in words)” value is “significantly more active than the Factor X peptide I” and the “additive reduction of neutrophil adherence, peptide together with IB4” value is listed as greater than 80±10%. In addition, in assay [1], the “Factor Xa” value was 57.4 ng/mL and the Clotting time was found to be 34.1 ± 1.1 s.

As for “DEETVK [scrambled FHA II, reference compound]”, the “inhibition … (in words)” value in assay [2] is on record as “did not interfere with neutrophil binding”. In addition, in assay [1], the “Factor Xa” value was found to be 165.0 ng/mL and the Clotting time is 23.1 ± 1.0 s. In addition, in assay [1] (control FHA II peptide), the “Factor Xa” value came out at 165 ng/mL.

Consider ETKEVDG [FHA II], for which, in assay [2], the “neutrophil adherence, peptide plus 9D4” value is 45 ± 9 % of control binding; the “neutrophil adherence, peptide plus 12H1” value is recorded as 67 ± 13 % of control binding; the “neutrophil adherence, peptide plus IB4” value is recorded as 11 ± 6 % of control binding; the “neutrophil adherence, single agent” value is 40 ± 23 % of control binding. For the same substance, the “additive reduction of neutrophil adherence, peptide together with IB4” value in assay [2] was greater than 80±10%. Also, in assay [1], the “effect on Factor Xa generation (in words)” value is given as “did not interfere with the generation of Factor Xa procoagulant activity”, the “Factor Xa” value was 86.0 ng/mL and the Clotting time is 30.0 ± 5.0 s.

As for GTLLLRNDALTENGTVTISA [FHA Cd], in assay [2], the “inhibition of neutrophil adherence” value is recorded as less than 15%.

For the substance RGDPHQGVLAQGDIIMDAKG [FHA Ca], in assay [2], the “inhibition of neutrophil adherence” value was determined as 47±7% and the “maximal inhibition of neutrophil attachment” value is ~ 50%.

With “native FHA: Filamentous hemagglutinin, 220kD surface associated protein of Bordetella pertussis (List Biologicals)”, in assay [2], the “concentration at which loss of activity (≤20% inhibition) occurred” value is recorded as 10^-3 μM and the “maximal inhibition of neutrophil attachment” value was ~ 50%. Besides, the “reduction of neutrophil binding to HUVEC” value in assay [2] (native FHA 25 μg/ml = 0.3 μM) is 51±8%. For the same substance, the “inhibition of adherence of neutrophils to endothelial cells” value in assay [2] (native FHA 50 ug/ml, 0.2 uM) worked out at 51±7%.

In the case of RADPHQGVLAQGDIIMDAKG [FHA Cb], the “role of RGD in blocking neutrophil adherence (in words)” value in assay [2] is on record as “activity was decreased by half”.

As for AADPHQGVLAQGDIIMDAKG [FHA Cc], the “role of RGD in blocking neutrophil adherence (in words)” value in assay [2] is on record as “activity was detectable above background but was not statistically different from buffer alone”.
